The Kinase Knowledgebase extract (Sharma et al. 2016)

How the values were obtained:
[1] = target: EGFR (human) (UniProt P00533)
[2] = target: EGFR (human) (UniProt P00533); details: kb

EGFR (human), sequence (P00533 whole entry, looked up): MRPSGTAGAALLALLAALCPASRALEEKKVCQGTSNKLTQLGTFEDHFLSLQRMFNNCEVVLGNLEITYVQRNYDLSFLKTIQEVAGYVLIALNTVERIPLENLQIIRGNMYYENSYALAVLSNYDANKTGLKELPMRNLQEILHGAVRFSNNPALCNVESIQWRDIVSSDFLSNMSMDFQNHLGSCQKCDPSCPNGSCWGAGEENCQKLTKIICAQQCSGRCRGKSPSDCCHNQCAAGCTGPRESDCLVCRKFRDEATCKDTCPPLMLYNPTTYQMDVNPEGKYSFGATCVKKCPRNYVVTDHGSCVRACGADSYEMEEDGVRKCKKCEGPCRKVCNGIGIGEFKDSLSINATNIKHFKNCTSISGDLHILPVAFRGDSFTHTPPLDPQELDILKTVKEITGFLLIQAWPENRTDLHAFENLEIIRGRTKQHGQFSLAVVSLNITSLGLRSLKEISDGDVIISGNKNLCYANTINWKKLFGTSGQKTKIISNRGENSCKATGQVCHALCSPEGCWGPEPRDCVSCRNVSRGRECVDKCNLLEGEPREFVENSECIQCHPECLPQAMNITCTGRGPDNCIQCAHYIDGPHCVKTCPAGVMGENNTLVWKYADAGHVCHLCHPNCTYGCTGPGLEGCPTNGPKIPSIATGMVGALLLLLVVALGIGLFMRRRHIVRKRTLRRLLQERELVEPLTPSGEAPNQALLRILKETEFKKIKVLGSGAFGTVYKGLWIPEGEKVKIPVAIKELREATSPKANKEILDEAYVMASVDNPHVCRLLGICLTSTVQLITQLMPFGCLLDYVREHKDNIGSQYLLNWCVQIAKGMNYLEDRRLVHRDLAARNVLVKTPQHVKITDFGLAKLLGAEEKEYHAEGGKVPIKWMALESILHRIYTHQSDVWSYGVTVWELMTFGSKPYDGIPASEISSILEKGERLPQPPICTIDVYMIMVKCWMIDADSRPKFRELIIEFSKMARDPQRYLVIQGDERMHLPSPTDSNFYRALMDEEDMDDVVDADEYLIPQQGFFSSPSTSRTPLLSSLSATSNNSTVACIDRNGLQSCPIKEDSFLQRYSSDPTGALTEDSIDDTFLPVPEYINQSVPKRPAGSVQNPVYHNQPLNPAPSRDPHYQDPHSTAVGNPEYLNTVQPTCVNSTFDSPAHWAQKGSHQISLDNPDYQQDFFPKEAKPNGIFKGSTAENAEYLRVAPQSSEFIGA

Compound | IC50 [1] | IC50 [2]
COc1cc2ncnc(Nc3cccc(Cl)c3F)c2cc1O[C@@H]1CCCN(C(=O)Cc2cccs2)C1 |  | 30 nM
COc1cc2ncnc(Nc3cccc(Cl)c3F)c2cc1OC1CCN(C(=O)c2ccccn2)CC1 |  | 16 nM
COc1cc2c(Nc3cccc(Cl)c3F)ncnc2cc1OC1CCN(C(=O)Cc2cc(C)no2)CC1 |  | 47 nM
COc1cc2c(Nc3cccc(Cl)c3F)ncnc2cc1OC1CCN(C(=O)c2cccnc2)CC1 |  | 87 nM

Other lines, results leading:

IC50 [1] | IC50 [2] | Compound
0.008 nM | 0.144 nM | COc1cc2ncnc(Nc3cccc(Cl)c3F)c2cc1O[C@H]1C[C@H](C(=O)NCCNC(C)=O)N(C)C1
0.012 nM | 0.063 nM | COc1cc2ncnc(Nc3cccc(Cl)c3F)c2cc1O[C@@H]1C[C@@H](C(=O)NCCC#N)N(C)C1
 | 17 nM | COc1cc2ncnc(Nc3cccc(Cl)c3F)c2cc1OC1CCN(C(=O)c2ccno2)CC1
 | 17 nM | COc1cc2ncnc(Nc3cccc(Cl)c3F)c2cc1OC1CCN(C(=O)Nc2c(C)noc2C)CC1
0.01 nM | 0.139 nM | COc1cc2ncnc(Nc3cccc(Cl)c3F)c2cc1O[C@H]1C[C@H](C(=O)N[C@H]2COC[C@@H]2O)N(C)C1
